Data on 2 compounds can be found in ChEMBL document CHEMBL3045971, “Normalizing effects of Costus speciosus rhizome crude extracts and its fractions on diabetic complications in STZ-induced diabetic rats” (Med Chem Res, 2011).

In data set [1] the test system is Rattus norvegicus. Nature of the data set: Antidiabetic activity in Rattus norvegicus Wistar (rat) assessed as STZ-induced plasma glucose level at 20 mg/kg, po administered for 15 days by glucose oxidase method (reference value: 377.3 +/- 10.5 mg/dl). The class given is functional.
Data set [2] relates to Rattus norvegicus. Description: Antidiabetic activity in po dosed Rattus norvegicus Wistar (rat) assessed as decrease in STZ-induced plasma glucose level administered for 15 days by glucose oxidase method. It is filed as functional, organism-based.
Data set [3] deals with Rattus norvegicus. Nature of the data set: Effect on plasma glucose level in normal Rattus norvegicus Wistar (rat) at 20 mg/kg, po administered for 15 days by glucose oxidase method (reference value: 85.7 +/- 7.2 mg/dl). It is filed as organism-based. Further details: dose 20 mg/kg, route oral. Particulars: in vivo, 360 h.
Data set [4] has as its system Rattus norvegicus. Description: Antidiabetic activity in Rattus norvegicus Wistar (rat) assessed as STZ-induced plasma glucose level at 5 mg/kg, po administered for 15 days by glucose oxidase method (reference value: 377.3 +/- 10.5 mg/dl). The class given is functional.
Data set [5] concerns Rattus norvegicus. Nature of the data set: Antidiabetic activity in Rattus norvegicus Wistar (rat) assessed as STZ-induced plasma glucose level at 10 mg/kg, po administered for 15 days by glucose oxidase method (reference value: 377.3 +/- 10.5 mg/dl). The class given is functional.

`C=C1CC[C@H]2C(C)=CC[C@H]3C(=C)C(=O)O[C@@H]3[C@@H]12` [EREMANTHIN]: the Activity in data set [1] is 188.76 mg/dL; in data set [2] it was “Dose-dependent effect”; in data set [3], 95.57 mg/dL; in data set [4], 308.41 mg/dL; in data set [5], 265.27 mg/dL.

On to `C=C1C(=O)O[C@@H]2/C=C(\C)CC/C=C(\C)CC[C@@H]12` [COSTUNOLIDE], for which the Activity in data set [1] was 167 mg/dL; in data set [2], “Dose-dependent effect”; in data set [3] it was 85.5 mg/dL; in data set [4], 285.5 mg/dL; in data set [5] it was 240.7 mg/dL.
